# What was measured:
# [1] = test system: Moenomycinase; experiment: Moenomycinase activity (activation / inhibition); type: biochemical, Bacillus spec. DSM 4675
# Text: The dissolved enzyme was further purified by chromatography. For anion exchange chromatography, the enzyme was bound to a column of DEAE-52 (Whatman) or MonoQHR-5-5 (Pharmacia) and then eluted with 0.2-1.0M NaCl. Presence of moenomycinase in the fractions was monitored by measuring the conversion of moenomycin A to MC, as described in Example 3, below. Further purification was achieved using hydrophobic chromatography. The enzyme was bound to phenylsepharose (Pharmacia), and was then eluted with 40% methanol. The enzyme was concentrated by ultrafiltration using an ultrafiltration membrane (Millipore) which retains molecules with molecular weights ≥10,000 Dalton.
# [2] = test system: E. coli DC2; experiment: Agar dilution test, Mueller-Hinton agar (minimum inhibitory concentration); type: cell-based; details: Escherichia coli
# Procedure: (§1) An agar dilution test with Mueller-Hinton agar was carried out to determine the antibacterial activities (Antibiotics in Laboratory Medicine, V. Lorian, Ed., Baltimore 1986, pages 1-10).
# [3] = test system: Staph. aureus 503; experiment: as above; type: cell-based; details: Staphylococcus aureus
# Procedure: as §1
# [4] = test system: Str. pyogenes 77; experiment: as above; type: cell-based; details: Streptococcus pyogenes
# Procedure: as §1
# [5] = target: T1, transglycosylase (Escherichia coli, UniProt P02919); experiment: Transglycosylase assay (Izaki), inhibition of polymerization of the peptidoglycan-sugar chains; type: biochemical, E. coli K 12; details: moenomycin A 20 μg/ml; concentration of MB not stated separately
# T1 sequence (P02919 whole entry): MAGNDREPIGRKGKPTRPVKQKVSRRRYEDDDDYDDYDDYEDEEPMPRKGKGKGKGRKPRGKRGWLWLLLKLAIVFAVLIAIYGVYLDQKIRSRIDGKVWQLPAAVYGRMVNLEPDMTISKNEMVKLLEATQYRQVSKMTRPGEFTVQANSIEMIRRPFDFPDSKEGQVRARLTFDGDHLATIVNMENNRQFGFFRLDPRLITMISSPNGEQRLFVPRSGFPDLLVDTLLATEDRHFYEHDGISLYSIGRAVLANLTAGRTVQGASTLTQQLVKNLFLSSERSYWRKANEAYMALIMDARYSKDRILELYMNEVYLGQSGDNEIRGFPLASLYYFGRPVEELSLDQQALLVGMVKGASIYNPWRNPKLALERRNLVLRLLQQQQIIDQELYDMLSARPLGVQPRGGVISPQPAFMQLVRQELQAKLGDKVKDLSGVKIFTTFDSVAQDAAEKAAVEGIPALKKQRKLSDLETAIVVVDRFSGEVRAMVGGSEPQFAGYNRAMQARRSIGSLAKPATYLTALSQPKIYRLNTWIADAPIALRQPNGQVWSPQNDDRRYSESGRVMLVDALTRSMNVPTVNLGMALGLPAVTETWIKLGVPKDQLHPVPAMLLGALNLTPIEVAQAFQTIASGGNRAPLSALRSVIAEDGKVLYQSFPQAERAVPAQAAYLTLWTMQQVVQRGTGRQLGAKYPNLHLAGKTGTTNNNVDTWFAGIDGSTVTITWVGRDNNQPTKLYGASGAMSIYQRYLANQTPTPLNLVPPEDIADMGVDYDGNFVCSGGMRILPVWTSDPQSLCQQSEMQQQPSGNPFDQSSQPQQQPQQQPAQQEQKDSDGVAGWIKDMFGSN
# Procedure: (§2) The inhibition of the polymerization of the peptidoglycan-sugar chains by the cleavage products was carried out by the assay described by Izaki (J. Biol. Chem. 243, 3180-3192, 1968) using lipid intermediates from the cell membrane of E. coli K 12.
# [6] = target: T1, transglycosylase; experiment: Another study: inhibition of the transglycosylase reaction, in vitro peptidoglycan synthesis; type: biochemical, E. coli K 12; details: Final Concentration 12.5 μg/l
# Procedure: as §2
# Results of another study of the inhibition of the transglycosylase reaction by moenomycin cleavage products in vitro is shown in the following Table. The values in the Table show the inhibition of peptidoglycan-sugar chain synthesis in vitro. Decahydro MB is an analog of MB that has no double bonds in the alkyl chain.
# [7] = test system: Moenomycinase; experiment: Moenomycinase kinetics (Km for substrate); type: biochemical, Bacillus spec. DSM 4675; details: moenomycin A as substrate
# [8] = test system: biosynthesis of the peptidoglycan framework of the bacterial cell wall; details: cited from earlier work
molecule,measurement,setting,value
O=C(O)CN(CCN(CC(=O)O)CC(=O)O)CC(=O)O [EDTA],inhibition of moenomycinase,[1],inhibited
C=C(CC=C(C)CCC=C(C)C)CCC(C)(C)C=CCCC(C)=CCO[C@H](COP(=O)(O)O)C(=O)O [MB],MIC,[2],> 100 µg/mL
same,MIC,[3],25 µg/mL
same,MIC,[4],3.12 µg/mL
same,inhibition of the transglycosylase reaction,[5],32.9%
same,% Inhibition of In Vitro Peptidoglycan Synthesis,[6],94%
formalin,inhibition of moenomycinase,[1],inhibited
C=C(CC=C(C)CCC=C(C)C)CCC(C)(C)C=CCCC(C)=CCOC(COP(=O)(O)OC1OC(C(N)=O)C(C)(O)C(OC(N)=O)C1OC1OC(COC2OC(CO)C(O)C(O)C2O)C(OC2OC(C)C(OC3OC(C(=O)NC4=C(O)CCC4=O)C(O)C(O)C3O)C(O)C2NC(C)=O)C(O)C1NC(C)=O)C(=O)O (stereo not shown) [moenomycin A],Km,[7],4 to 10 mM
same,inhibition of the biosynthesis of the peptidoglycan framework of the bacterial cell wall,[8],inhibits
"CC(=O)OCC1=C(C(=O)O)N2C(=O)[C@@H](N)[C@H]2SC1 [7-aminocephalosporin acid (7-ACA), 7-aminocephalosporin acid]",inhibition of moenomycinase,[1],inhibited
CC(=O)OCC1=C(C(=O)O)N2C(=O)[C@@H](NC(=O)CCC[C@@H](N)C(=O)O)[C@H]2SC1 [Cephalosporin C],inhibition of moenomycinase,[1],inhibited
C=C(CC=C(C)CCC=C(C)C)CCC(C)(C)C=CCCC(C)=CCO[C@H](CO)C(=O)O [MA],MIC,[2],> 100 µg/mL
same,MIC,[3],> 100 µg/mL
same,MIC,[4],> 100 µg/mL
same,% Inhibition of In Vitro Peptidoglycan Synthesis,[6],67%
CC(C)CCCC(C)CCC(C)CCC(C)(C)CCCCC(C)CCO[C@H](COP(=O)(O)O)C(=O)O (stereo partly shown) [Decahydro MB],% Inhibition of In Vitro Peptidoglycan Synthesis,[6],28%
